Molecular target: T1, GCS (Canis lupus familiaris, UniProt A0A8I3MXG6)
T1 sequence (A0A8I3MXG6 1-394): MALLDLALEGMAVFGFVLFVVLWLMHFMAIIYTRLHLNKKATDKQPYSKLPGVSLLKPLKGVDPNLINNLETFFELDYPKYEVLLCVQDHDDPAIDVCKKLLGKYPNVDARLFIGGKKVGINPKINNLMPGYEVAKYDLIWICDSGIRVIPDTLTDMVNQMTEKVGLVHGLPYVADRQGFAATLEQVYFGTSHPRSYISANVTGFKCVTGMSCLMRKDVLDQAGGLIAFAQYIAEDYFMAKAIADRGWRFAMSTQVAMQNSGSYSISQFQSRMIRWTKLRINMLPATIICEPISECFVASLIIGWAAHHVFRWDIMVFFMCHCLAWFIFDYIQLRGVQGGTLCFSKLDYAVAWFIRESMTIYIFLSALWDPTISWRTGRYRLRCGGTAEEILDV
Test: Assay 1: GCS Enzymatic Assay (MDCK cell lysate, C6-NBD-Ceramide, LC/MS)
Assay type: biochemical, canine
Conditions: Table 2; for IC50: data without asterisk, read-out: IC50 (nM) generated from Assay 1; for % inhibition generated from Assay 1: data marked by *
How it was run: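 LC/MS/MS measurement of glucosylceramide and NBD-ceramide after a 1 h, 37 °C reaction with 100 μM UDP-glucose and 10 μM C6-NBD-ceramide gave IC50s or percent inhibition.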

| SMILES | IC50 [nM] | % inhibition generated from Assay 1 |
| --- | --- | --- |
| O=C(N[C@H](CN1CCCC1)[C@H](O)c1cc(F)c2c(c1)OCCO2)C(=O)c1ccc2ccc(Cl)cc2c1 [Compound 156, 2-(7-chloronaphthalen-2-yl)-N-((1R,2R)-1-(8-fluoro-2,3-dihydrobenzo[b][1,4]dioxin-6-yl)-1-hydroxy-3-(pyrrolidin-1-yl)propan-2-yl)-2-oxoacetamide] | < 50 | – |
| O=C(N[C@H](CN1CCC1)[C@H](O)c1cc(F)c2c(c1)OCCO2)C(F)(F)c1ccc(-c2ccc(F)cc2)cc1 [Compound 157, N-((1R,2R)-3-(azetidin-1-yl)-1-(8-fluoro-2,3-dihydrobenzo[b][1,4]dioxin-6-yl)-1-hydroxypropan-2-yl)-2,2-difluoro-2-(4′-fluoro-[1,1′-biphenyl]-4-yl)acetamide] | < 50 | – |
| O=C(N[C@H](CN1CCCC1)[C@H](O)c1cc(F)c2c(c1)OCCO2)/C(=N/O)c1ccc2cc(Cl)ccc2c1 [Compound 158, (E)-2-(6-chloronaphthalen-2-yl)-N-((1R,2R)-1-(8-fluoro-2,3-dihydrobenzo[b][1,4]dioxin-6-yl)-1-hydroxy-3-(pyrrolidin-1-yl)propan-2-yl)-2-(hydroxyimino)acetamide] | < 50 | – |
| O=C(N[C@H](CN1CCCC1)[C@H](O)c1ccc(OC2CC2)c(Cl)c1)C(F)(F)c1ccc(-c2ccc(F)cc2)cc1 [Compound 159, N-((1R,2R)-1-(3-chloro-4-cyclopropoxyphenyl)-1-hydroxy-3-(pyrrolidin-1-yl)propan-2-yl)-2,2-difluoro-2-(4′-fluoro-[1,1′-biphenyl]-4-yl)acetamide] | < 50 | – |
| O=C(N[C@H](CN1CCCC1)[C@H](O)c1ccc2c(c1)OCCO2)C(F)(F)c1ccc(-c2ccc(F)cc2)cc1 [Compound 160, N-((1R,2R)-1-(2,3-dihydrobenzo[b][1,4]dioxin-6-yl)-1-hydroxy-3-(pyrrolidin-1-yl)propan-2-yl)-2,2-difluoro-2-(4′-fluoro-[1,1′-biphenyl]-4-yl)acetamide] | < 50 | – |
| O=C(N[C@H](CN1CCC1)[C@H](O)c1ccc2c(c1)OCCO2)C(F)(F)c1ccc(-c2ccc(F)cc2)cc1 [Compound 161, N-((1R,2R)-3-(azetidin-1-yl)-1-(2,3-dihydrobenzo[b][1,4]dioxin-6-yl)-1-hydroxypropan-2-yl)-2,2-difluoro-2-(4′-fluoro-[1,1′-biphenyl]-4-yl)acetamide] | < 50 | – |
| O=C(N[C@H](CN1CCC1)[C@H](O)c1ccc(OC2CC2)c(Cl)c1)C(F)(F)c1ccc(-c2ccc(F)cc2)cc1 [Compound 162, N-((1R,2R)-3-(azetidin-1-yl)-1-(3-chloro-4-cyclopropoxyphenyl)-1-hydroxypropan-2-yl)-2,2-difluoro-2-(4′-fluoro-[1,1′-biphenyl]-4-yl)acetamide] | – | A* (the compound had a % inhibition of a percent inhibition of greater than or equal to about 50%) |
| O=C(N[C@H](CN1CCCC1)[C@H](O)c1ccc(OC2CCOCC2)c(Cl)c1)C(F)(F)c1ccc(-c2ccc(F)cc2)cc1 [Compound 163, N-((1R,2R)-1-(3-chloro-4-((tetrahydro-2H-pyran-4-yl)oxy)phenyl)-1-hydroxy-3-(pyrrolidin-1-yl)propan-2-yl)-2,2-difluoro-2-(4′-fluoro-[1,1′-biphenyl]-4-yl)acetamide] | < 50 | – |
| O=C(N[C@H](CN1CCC1)[C@H](O)c1ccc(OC2CC2)c(Cl)c1)/C(CCc1ccc2ccccc2c1)=N/O [Compound 164, (E)-N-((1R,2R)-3-(azetidin-1-yl)-1-(3-chloro-4-cyclopropoxyphenyl)-1-hydroxypropan-2-yl)-2-(hydroxyimino)-4-(naphthalen-2-yl)butanamide] | – | A* (the compound had a % inhibition of a percent inhibition of greater than or equal to about 50%) |
| O=C(N[C@H](CN1CCCC1)[C@H](O)c1ccc2c(c1)OCCO2)C(F)(F)CCc1ccc2c(c1)CCCC2 [Compound 165, N-((1R,2R)-1-(2,3-dihydrobenzo[b][1,4]dioxin-6-yl)-1-hydroxy-3-(pyrrolidin-1-yl)propan-2-yl)-2,2-difluoro-4-(5,6,7,8-tetrahydronaphthalen-2-yl)butanamide] | < 50 | – |
| O=C(N[C@H](CN1CCCC1)[C@H](O)c1ccc(OC2CC2)c(Cl)c1)C(F)(F)CCc1ccc2c(c1)CCCC2 [Compound 166, N-((1R,2R)-1-(3-chloro-4-cyclopropoxyphenyl)-1-hydroxy-3-(pyrrolidin-1-yl)propan-2-yl)-2,2-difluoro-4-(5,6,7,8-tetrahydronaphthalen-2-yl)butanamide] | < 50 | – |
| O=C(N[C@H](CN1CCCC1)[C@H](O)c1cc(F)c2c(c1)OCCO2)C(F)(F)CCc1ccc2c(c1)CCCC2 [Compound 167, 2,2-difluoro-N-((1R,2R)-1-(8-fluoro-2,3-dihydrobenzo[b][1,4]dioxin-6-yl)-1-hydroxy-3-(pyrrolidin-1-yl)propan-2-yl)-4-(5,6,7,8-tetrahydronaphthalen-2-yl)butanamide] | < 50 | – |
| CC(C)(O)COc1ccc([C@H](O)[C@@H](CN2CCCC2)NC(=O)C(F)(F)c2cc3cc(Cl)ccc3o2)cc1Cl [Compound 168, N-((1S,2R)-1-(3-chloro-4-(2-hydroxy-2-methylpropoxy)phenyl)-1-hydroxy-3-(pyrrolidin-1-yl)propan-2-yl)-2-(5-chlorobenzofuran-2-yl)-2,2-difluoroacetamide] | – | B* (the compound had a % inhibition of greater than or equal to about 3% but less than about 50%) |
| O=C(N[C@H](CN1CCC1)[C@H](O)c1ccc(OC2CC2)c(Cl)c1)/C(=N/O)c1cc2cc(Cl)ccc2o1 [Compound 169, (E)-N-((1R,2R)-3-(azetidin-1-yl)-1-(3-chloro-4-cyclopropoxyphenyl)-1-hydroxypropan-2-yl)-2-(5-chlorobenzofuran-2-yl)-2-(hydroxyimino)acetamide] | – | A* (the compound had a % inhibition of a percent inhibition of greater than or equal to about 50%) |
| O=C(CCc1ccc2ccccc2c1)C(=O)N[C@H](CN1CCC1)[C@H](O)c1ccc(OC2CC2)c(Cl)c1 [Compound 170, N-((1R,2R)-3-(azetidin-1-yl)-1-(3-chloro-4-cyclopropoxyphenyl)-1-hydroxypropan-2-yl)-4-(naphthalen-2-yl)-2-oxobutanamide] | – | B* (the compound had a % inhibition of greater than or equal to about 3% but less than about 50%) |
| O=C(N[C@H](CN1CCC1)[C@H](O)c1ccc(OC2CC2)c(Cl)c1)C(F)(F)CCc1ccc2ccccc2c1 [Compound 171, N-((1R,2R)-3-(azetidin-1-yl)-1-(3-chloro-4-cyclopropoxyphenyl)-1-hydroxypropan-2-yl)-2,2-difluoro-4-(naphthalen-2-yl)butanamide] | < 50 | – |
| O=C(N[C@H](CN1CCCC1)[C@H](O)c1ccc(OC2CC2)c(Cl)c1)C(=O)c1ccc2cc(Cl)ccc2c1 [Compound 172, N-((1R,2R)-1-(3-chloro-4-cyclopropoxyphenyl)-1-hydroxy-3-(pyrrolidin-1-yl)propan-2-yl)-2-(6-chloronaphthalen-2-yl)-2-oxoacetamide] | < 50 | – |
| O=C(N[C@H](CN1CCCC1)[C@H](O)c1ccc(OC2CC2)c(Cl)c1)/C(=N/O)c1ccc2cc(Cl)ccc2c1 [Compound 173, (E)-N-((1R,2R)-1-(3-chloro-4-cyclopropoxyphenyl)-1-hydroxy-3-(pyrrolidin-1-yl)propan-2-yl)-2-(6-chloronaphthalen-2-yl)-2-(hydroxyimino)acetamide] | < 50 | – |
| O=C(N[C@H](CN1CCCC1)[C@H](O)c1ccc2c(c1)OCCO2)C(=O)c1ccc(-c2ccc(F)cc2)s1 [Compound 174, N-((1R,2R)-1-(2,3-dihydrobenzo[b][1,4]dioxin-6-yl)-1-hydroxy-3-(pyrrolidin-1-yl)propan-2-yl)-2-(5-(4-fluorophenyl)thiophen-2-yl)-2-oxoacetamide] | < 50 | – |
| O=C(N[C@H](CN1CCCC1)[C@H](O)c1ccc(OC2CC2)c(Cl)c1)C(=O)c1ccc(-c2ccc(F)cn2)cc1 [Compound 175] | < 50 | – |
| O=C(N[C@H](CN1CCCC1)[C@H](O)c1cc(F)c2c(c1)OCCO2)C(=O)c1ccc(-c2ccc(F)cn2)cc1 [Compound 176, N-((1R,2R)-1-(8-fluoro-2,3-dihydrobenzo[b][1,4]dioxin-6-yl)-1-hydroxy-3-(pyrrolidin-1-yl)propan-2-yl)-2-(4-(5-fluoropyridin-2-yl)phenyl)-2-oxoacetamide] | < 50 | – |
| O=C(N[C@H](CN1CCCC1)[C@H](O)c1ccc(OC2CCOCC2)c(Cl)c1)/C(=N/O)c1ccc(-c2ccc(F)cc2)cc1 [Compound 177, (E)-N-((1R,2R)-1-(3-chloro-4-((tetrahydro-2H-pyran-4-yl)oxy)phenyl)-1-hydroxy-3-(pyrrolidin-1-yl)propan-2-yl)-2-(4′-fluoro-[1,1′-biphenyl]-4-yl)-2-(hydroxyimino)acetamide] | < 50 | – |
| O=C(N[C@H](CN1CCCC1)[C@H](O)c1ccc(OC2CC2)c(Cl)c1)C(F)(F)c1ccc(-c2ccc(F)cn2)cc1 [Compound 178, N-((1R,2R)-1-(3-chloro-4-cyclopropoxyphenyl)-1-hydroxy-3-(pyrrolidin-1-yl)propan-2-yl)-2,2-difluoro-2-(4-(5-fluoropyridin-2-yl)phenyl)acetamide] | – | A* (the compound had a % inhibition of a percent inhibition of greater than or equal to about 50%) |
